According to patent US20240376154A1, “BIS-INTERCALATING PEPTIDES, CONJUGATES AND METHODS OF USE” (ZYMEWORKS BC INC., priority 2023, published 2024):

Details: amide bond; 32-membered ring

Substance	ring closure, isolated yield
Benzyl tert-butyl ((4aS,8R,14aS,23S,27R,33aS)-23-isopropyl-19,22,38-trimethyl-5,9,15,18,21,24,28,34,37,40-decaoxotetracontahydro-11H-tripyrido[1,2-a:1′,2′-j:1″,2″-q][1,4,7,10,13,17,20,23,26,29]decaazacyclodotriacontine-8,27-diyl)dicarbamate	64%
Benzyl tert-butyl ((5aS,9R,15aS,24S,28R,34aS)-24-isopropyl-20,23,39-trimethyl-6,10,16,19,22,25,29,35,38,41-decaoxotetracontahydro-1H,12H-azepino[1,2-j]dipyrido[1,2-a:1′,2′-q][1,4,7,10,13,17,20,23,26,29]decaazacyclodotriacontine-9,28-diyl)dicarbamate	22%
Benzyl tert-butyl ((7R,8R,11S,19aS,26R,30S,38aS)-11,30-di((S)-sec-butyl)-8,12,15,31,34-pentamethyl-6,10,13,16,19,25,29,32,35,38-decaoxotetratriacontahydro-2H,6H,10H-dipyrido[2,1-b1: 2′,1′-l][1]oxa[4,7,10,13,17,20,23,26,29]nonaazacyclodotriacontine-7,26-diyl)dicarbamate	71%
Benzyl tert-butyl ((7R,10aS,22aS,29R,32aS,44aS)-6,10,16,22,28,32,38,44-octaoxotetracontahydro-2H,19H-tetrapyrido[1,2-a1: 1′,2′-d: 1″,2″-k: 1′″,2′″-t][1,17]dioxa[4,7,11,14,20,23,27,30]octaazacyclodotriacontine-7,29-diyl)dicarbamate	44%
Benzyl tert-butyl ((7R,10aS,23aS,30R,33aS,46aS)-19,42-dimethyl-6,10,17,20,23,29,33,40,43,46-decaoxotetratetracontahydro-6H,29H-bis(azepino)[1,2-j:1′,2′-z]dipyrido[1,2-a:1′,2′-q][1,4,7,10,13,17,20,23,26,29]decaazacyclodotriacontine-7,30-diyl)dicarbamate	74%
Benzyl tert-butyl ((7R,11S,19aS,26R,30S,38aS)-11,15,30,34-tetraisopropyl-12,31-dimethyl-6,10,13,16,19,25,29,32,35,38-decaoxohexatriacontahydro-2H,6H-dipyrido[1,2-a:1′,2′-q][1,4,7,10,13,17,20,23,26,29]decaazacyclodotriacontine-7,26-diyl)dicarbamate	94%
Benzyl tert-butyl ((7R,11S,19aS,26R,30S,38aS)-11,30-di((S)-sec-butyl)-12,15,31,34-tetramethyl-6,10,13,16,19,25,29,32,35,38-decaoxohexatriacontahydro-2H,6H-dipyrido[1,2-a:1′,2′-q][1,4,7,10,13,17,20,23,26,29]decaazacyclodotriacontine-7,26-diyl)dicarbamate	90%
Benzyl tert-butyl ((7R,11S,19aS,26R,30S,38aS)-11,30-dicyclohexyl-12,15,31,34-tetramethyl-6,10,13,16,19,25,29,32,35,38-decaoxohexatriacontahydro-2H,6H-dipyrido[1,2-a:1′,2′-q][1,4,7,10,13,17,20,23,26,29]decaazacyclodotriacontine-7,26-diyl)dicarbamate	72%
Benzyl tert-butyl ((7R,11S,19aS,26R,30S,38aS)-11,30-diisopropyl-12,15,31,34-tetramethyl-6,10,13,16,19,25,29,32,35,38-decaoxohexatriacontahydro-2H,6H-dipyrido[1,2-a:1′,2′-q][1,4,7,10,13,17,20,23,26,29]decaazacyclodotriacontine-7,26-diyl)dicarbamate	69%
Benzyl tert-butyl ((7R,11S,19aS,26R,30S,38aS)-11,30-diisopropyl-12,15,31,34-tetramethyl-6,10,13,16,19,25,29,32,35,38-decaoxotetratriacontahydro-2H,6H,10H-dipyrido[2,1-b1: 2′,1′-l][1]oxa[4,7,10,13,17,20,23,26,29]nonaazacyclodotriacontine-7,26-diyl)dicarbamate	63%
Benzyl tert-butyl ((7R,11S,19aS,26R,30S,38aS)-11,30-diisopropyl-12,31-dimethyl-6,10,13,16,19,25,29,32,35,38-decaoxo-15,34-dipropylhexatriacontahydro-2H,6H-dipyrido[1,2-a:1′,2′-q][1,4,7,10,13,17,20,23,26,29]decaazacyclodotriacontine-7,26-diyl)dicarbamate	85%
Benzyl tert-butyl ((7R,11S,19aS,26R,30S,38aS)-11,30-diisopropyl-12,31-dimethyl-6,10,13,16,19,25,29,32,35,38-decaoxohexatriacontahydro-2H,6H-dipyrido[1,2-a:1′,2′-q][1,4,7,10,13,17,20,23,26,29]decaazacyclodotriacontine-7,26-diyl)dicarbamate	53%
Benzyl tert-butyl ((7R,11S,19aS,26R,30S,38aS)-11,30-diisopropyl-12,31-dimethyl-6,10,13,19,25,29,32,38-octaoxodotriacontahydro-2H,6H,16H,25H-dipyrido[1,2-a1:1′,2′-k][1,17]dioxa[4,7,11,14,20,23,27,30]octaazacyclodotriacontine-7,26-diyl)dicarbamate	58%
Benzyl tert-butyl ((7R,11S,19aS,26R,30S,38aS)-11-((S)-sec-butyl)-30-isopropyl-12,15,31,34-tetramethyl-6,10,13,16,19,25,29,32,35,38-decaoxohexatriacontahydro-2H,6H-dipyrido[1,2-a:1′,2′-q][1,4,7,10,13,17,20,23,26,29]decaazacyclodotriacontine-7,26-diyl)dicarbamate	75%
Benzyl tert-butyl ((7R,11S,19aS,26R,30S,38aS)-11-cyclohexyl-30-isopropyl-12,15,31,34-tetramethyl-6,10,13,16,19,25,29,32,35,38-decaoxohexatriacontahydro-2H,6H-dipyrido[1,2-a:1′,2′-q][1,4,7,10,13,17,20,23,26,29]decaazacyclodotriacontine-7,26-diyl)dicarbamate	58%
Benzyl tert-butyl ((7R,11S,19aS,26R,30S,38aS)-11-isopropyl-12,15,31,34-tetramethyl-6,10,13,16,19,25,29,32,35,38-decaoxo-30-phenylhexatriacontahydro-2H,6H-dipyrido[1,2-a:1′,2′-q][1,4,7,10,13,17,20,23,26,29]decaazacyclodotriacontine-7,26-diyl)dicarbamate	26%
Benzyl tert-butyl ((7R,11S,19aS,26R,30S,38aS)-12,31-diethyl-11,30-diisopropyl-15,34-dimethyl-6,10,13,16,19,25,29,32,35,38-decaoxohexatriacontahydro-2H,6H-dipyrido[1,2-a:1′,2′-q][1,4,7,10,13,17,20,23,26,29]decaazacyclodotriacontine-7,26-diyl)dicarbamate	40%
Benzyl tert-butyl ((7R,11S,19aS,26R,30S,38aS)-15,34-diethyl-11,30-diisopropyl-12,31-dimethyl-6,10,13,16,19,25,29,32,35,38-decaoxohexatriacontahydro-2H,6H-dipyrido[1,2-a:1′,2′-q][1,4,7,10,13,17,20,23,26,29]decaazacyclodotriacontine-7,26-diyl)dicarbamate	68%
